According to patent publication US10689365B2, “Substituted 2-alkylimidazolylcarboxamides as pesticides” (Bayer CropScience Aktiengesellschaft, priority 2016, dated 2020):
Like-named read-outs stand apart in the source and are kept apart here.

Experiments:
Myzus persicae [1] = experiment: Myzus persicae - spray test (Chinese cabbage leaf discs); type: in vivo; details: Myzus persicae, foliar; application rate 500 g/ha, after 5-6 days; read-out: efficacy
Method: Myzus persicae—Spray Test
Solvent: 78 parts by weight of acetone • • 1.5 parts by weight of dimethylformamide
(§1) Emulsifier: alkylaryl polyglycol ether
(§2) To produce a suitable active compound preparation, 1 part by weight of active compound is dissolved using the stated parts by weight of solvent and made up with water containing an emulsifier concentration of 1000 ppm until the desired concentration is attained. To produce further test concentrations, the formulation is diluted with emulsifier-containing water.
Discs of Chinese cabbage leaves (Brassica pekinensis) infested by all stages of the green peach aphid (Myzus persicae) are sprayed with an active ingredient formulation of the desired concentration.
After 5-6 days, the efficacy in % is determined. 100% means that all the aphids have been killed; 0% means that no aphids have been killed.

Myzus persicae [2] = experiment: Myzus persicae - oral test (MYZUPE O); type: in vivo; details: 120 h, 5 dat, read-out: % efficacy
Method: Myzus persicae—Oral Test (MYZUPE O)
(§3) Solvent: 100 parts by weight of acetone
(§4) To produce a suitable preparation of active compound, 1 part by weight of active compound is dissolved using the specified parts by weight of solvent and made up with water until the desired concentration is attained.
(§5) 50 μl of the active compound preparation are transferred into microtitre plates and made up to a final volume of 200 μl with 150 μl of IPL41 insect medium (33%+15% sugar). Subsequently, the plates are sealed with parafilm, which a mixed population of green peach aphids (Myzus persicae) within a second microtitre plate is able to puncture and imbibe the solution through it.
(§6) After the desired period of time, the efficacy in % is determined. 100% means that all the aphids have been killed; 0% means that no aphids have been killed.

[3] = log P by HPLC on reversed-phase (C18) columns, OECD Guideline 117; type: physicochemical; details: reversed-phase (C18) HPLC column
Method: The log P values were determined in accordance with OECD Guideline 117 (EC Directive 92/69/EEC) by HPLC (high-performance liquid chromatography) using reversed-phase (RP) columns (C18), by the following methods:
[a] The LC-MS determination in the acidic range was carried out at pH 2.7 with 0.1% aqueous formic acid and acetonitrile (contains 0.1% formic acid) as mobile phases; linear gradient from 10% acetonitrile to 95% acetonitrile.
[b] LC-MS determination in the neutral range was carried out at pH 7.8 with 0.001 molar aqueous ammonium hydrogencarbonate solution and acetonitrile as mobile phases; linear gradient from 10% acetonitrile to 95% acetonitrile.

Myzus persicae [4] = experiment: Myzus persicae - spray test (MYZUPE S), bell pepper plants; type: in vivo; details: 144 h, 6 dat, read-out: % efficacy
Method: Myzus persicae—Spray Test (MYZUPE S)
(§7) Solvent: 14 parts by weight of dimethylformamide
as §1
as §2, with “with” for “using”, “specified” for “stated”, “water. If the addition of ammonium salts or/and penetrants is required, these are each added in a concentration of 1000 ppm to the formulation solution.” for “water.”
Bell pepper plants (Capsicum annuum) severely infested with the green peach aphid (Myzus persicae) are treated by spraying with the active ingredient formulation in the desired concentration.
After the desired time, the kill in % is determined. 100% means that all the animals have been killed; 0% means that no animals have been killed.

Aphis gossypii = Aphis gossypii - spray test (APHIGO S), cotton plants; type: in vivo; details: 144 h, 6 dat, read-out: % efficacy
Method: Aphis gossypii—Spray Test (APHIGO S)
as §7, §1
as §2, with “water. If the addition of ammonium salts or/and penetrants is required, these are each added in a concentration of 1000 ppm to the formulation solution.” for “water.”
Cotton plants (Gossypium hirsutum) heavily infested by the cotton aphid (Aphis gossypii) are sprayed with an active ingredient formulation of the desired concentration.
After the desired time, the kill in % is determined. 100% means that all the aphids have been killed; 0% means that no aphids have been killed.

Myzus persicae [5] = experiment: Myzus persicae - spray test (MYZUPE), Chinese cabbage leaf discs; type: in vivo; details: foliar, 120 h, 5 dat; for percent efficacy (aphid mortality) at 100 g/ha: 100 g of ai/ha
Method: Myzus persicae—Spray Test (MYZUPE)
Solvent: 78.0 parts by weight of acetone • • 1.5 parts by weight of dimethylformamide
as §1, §2
Discs of Chinese cabbage leaves (Brassica pekinensis) infested by all stages of the green peach aphid (Myzus persicae) are sprayed with an active compound preparation of the desired concentration.
as §6

Myzus persicae [6] = experiment: Myzus persicae - oral test; type: in vivo; details: Myzus persicae, po, 120 h; application rate 20 ppm, after 5 days; read-out: efficacy
Method: as §3, §4, §5
After 5 days, the efficacy in % is determined. 100% means that all the aphids have been killed; 0% means that no aphids have been killed.

Myzus persicae [7] = experiment: Myzus persicae - drench test (MYZUPE D), Savoy cabbage in soil; type: in vivo; details: 240 h, 10 dat, read-out: % efficacy
Method: Myzus persicae—Drench Test (MYZUPE D)
To produce a suitable active compound preparation, 1 part by weight of active compound is mixed with the specified amounts of solvent and emulsifier, and the concentrate is diluted with water to the desired concentration, it being necessary to include the volume of soil which is drenched in the calculation. It should be ensured that a concentration of 40 ppm of emulsifier in the soil is not exceeded. To produce further test concentrations, water is used for dilution.
Savoy cabbage (Brassica oleracea) in pots with soil and infested by all stages of the green peach aphid (Myzus persicae) is watered with an active compound preparation of the desired concentration.
as §6

[8] = acidic range, pH 2.7, 0.1% aqueous formic acid/acetonitrile, read-out: logP[a]
[9] = neutral range, pH 7.8, aqueous ammonium hydrogencarbonate/acetonitrile, read-out: logP[n]

SMILES | chromatographic logP [3, 8] | chromatographic logP [3, 9] | pest or weed control at 500 g/ha (Myzus persicae [1]) | Emax at 4 ppm (Myzus persicae [2]) | Emax at 0.16 ppm (Myzus persicae [4]) | Emax at 0.8 ppm (Aphis gossypii) | Emax at 4 ppm (Aphis gossypii) | percent efficacy (aphid mortality) at 20 g/ha (Myzus persicae [5]; 20 g of ai/ha) | percent efficacy (aphid mortality) at 100 g/ha (Myzus persicae [5]) | pest or weed control at 20 ppm (Myzus persicae [6]) | Emax at 0.16 ppm (Myzus persicae [7]) | Emax at 20 g/ha (Myzus persicae [5]; 20 g of ai/ha, read-out: % efficacy)
CC(C)S(=O)(=O)Cc1ncc(C(=O)N(C)c2cccnc2)n1C [Example I-1-30, 2-[(Isopropylsulphonyl)methyl]-N,1-dimethyl-N-(pyridin-3-yl)-1H-imidazole-5-carboxamide] | 0.56 | 0.88 | 90% | 100% | 98% | 100% | 100% | 90% | 90% | 100% | 98% | 
CC(C)CS(=O)(=O)Cc1ncc(C(=O)N(C)c2cccnc2)n1C [Example I-1-32] | 1.05 | 1.26 | 90% | 100% | 98% | 98% | 97% |  | 70% | 100% | 98% | 

More lines, main results first:

chromatographic logP [3, 8] | chromatographic logP [3, 9] | SMILES | pest or weed control at 500 g/ha (Myzus persicae [1]) | Emax at 4 ppm (Myzus persicae [2]) | Emax at 0.16 ppm (Myzus persicae [4]) | Emax at 0.8 ppm (Aphis gossypii) | Emax at 4 ppm (Aphis gossypii) | percent efficacy (aphid mortality) at 20 g/ha (Myzus persicae [5]; 20 g of ai/ha) | percent efficacy (aphid mortality) at 100 g/ha (Myzus persicae [5]) | pest or weed control at 20 ppm (Myzus persicae [6]) | Emax at 0.16 ppm (Myzus persicae [7]) | Emax at 20 g/ha (Myzus persicae [5]; 20 g of ai/ha, read-out: % efficacy)
-0.04 | 0.98 | CSCc1ncc(C(=O)N(C)c2cccnc2)n1C [Example I-1-26] | 100% | 100% | 95% | 30% | 98% | 90% | 90% | 100% | 90% | 
0.35 | 0.65 | CCS(=O)(=O)Cc1ncc(C(=O)N(C)c2cccnc2)n1C [Example I-1-28] | 100% | 100% | 95% | 98% | 100% |  | 90% | 100% | 95% | 100%
0.76 | 1.5 | CC(C)SCc1ncc(C(=O)N(C)c2cccnc2)n1C [Example I-1-29, 2-[(Isopropylsulphanyl)methyl]-N,1-dimethyl-N-(pyridin-3-yl)-1H-imidazole-5-carboxamide] | 90% | 100% | 99% | 98% | 100% |  | 90% | 100% | 98% | 
1.18 | 1.84 | CC(C)CSCc1ncc(C(=O)N(C)c2cccnc2)n1C [Example I-1-31, 2-[(isobutylsulphanyl)methyl]-N,1-dimethyl-N-(pyridin-3-yl)-1H-imidazole-5-carboxamide] | 100% | 100% | 99% | 100% | 100% | 90% | 90% | 100% | 95% | 
